Assay [1] deals with Neuronal acetylcholine receptor; alpha4/beta2 (Rattus norvegicus, UniProt P09483+P12390). The assay can be described thus: Displacement of [3H]cytisine from alpha-4-beta-2 ACHR in rat brain homogenate. Type of assay: tissue-based.
In assay [2] the target is T1, Neuronal acetylcholine receptor; alpha4/beta2 (Homo sapiens, UniProt P17787+P43681). Briefly: Maximal agonist activity on human alpha-4-beta-2 ACHR expressed in HEK293 cells assessed as change in intracellular calcium concentration by FLIPR relative to nicotine. Format: functional, cell-based. A general note: Calcium flux is commonly read through the fluorescence of an indicator in the cells.
T1 sequence (P17787 whole entry): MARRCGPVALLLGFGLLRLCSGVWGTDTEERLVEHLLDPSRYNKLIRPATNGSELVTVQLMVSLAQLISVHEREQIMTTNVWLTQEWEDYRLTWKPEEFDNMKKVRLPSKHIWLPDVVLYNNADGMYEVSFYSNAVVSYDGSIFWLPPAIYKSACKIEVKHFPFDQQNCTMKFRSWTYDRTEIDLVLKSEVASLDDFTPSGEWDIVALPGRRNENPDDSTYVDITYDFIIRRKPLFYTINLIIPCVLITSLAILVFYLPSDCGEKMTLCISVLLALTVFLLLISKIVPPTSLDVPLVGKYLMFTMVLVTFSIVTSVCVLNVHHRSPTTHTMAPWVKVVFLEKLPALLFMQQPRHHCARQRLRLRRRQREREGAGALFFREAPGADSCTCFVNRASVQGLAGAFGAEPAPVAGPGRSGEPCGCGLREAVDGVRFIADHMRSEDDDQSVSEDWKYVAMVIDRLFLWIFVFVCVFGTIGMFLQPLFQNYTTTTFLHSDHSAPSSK
T1 sequence (P43681 whole entry): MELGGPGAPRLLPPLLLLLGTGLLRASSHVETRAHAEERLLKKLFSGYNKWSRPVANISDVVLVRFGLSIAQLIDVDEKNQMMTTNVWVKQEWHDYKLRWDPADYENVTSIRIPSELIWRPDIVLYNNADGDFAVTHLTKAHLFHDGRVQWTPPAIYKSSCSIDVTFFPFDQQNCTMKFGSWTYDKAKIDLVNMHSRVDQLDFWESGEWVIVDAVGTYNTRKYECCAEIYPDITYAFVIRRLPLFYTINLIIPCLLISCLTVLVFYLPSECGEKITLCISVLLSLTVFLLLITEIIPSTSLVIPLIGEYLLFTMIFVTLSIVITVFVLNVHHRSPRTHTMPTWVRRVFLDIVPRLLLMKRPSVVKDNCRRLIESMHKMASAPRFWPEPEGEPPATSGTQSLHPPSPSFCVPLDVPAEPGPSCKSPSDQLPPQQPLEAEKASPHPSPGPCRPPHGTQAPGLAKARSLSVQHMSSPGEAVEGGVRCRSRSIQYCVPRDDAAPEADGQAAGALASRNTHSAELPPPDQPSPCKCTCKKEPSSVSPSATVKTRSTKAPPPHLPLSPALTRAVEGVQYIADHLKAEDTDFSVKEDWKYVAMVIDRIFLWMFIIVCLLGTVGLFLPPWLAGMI

For assay [3], the target named is T1, Neuronal acetylcholine receptor; alpha4/beta2. The assay can be described thus: Agonist activity at human alpha4beta2 ACHR expressed in HEK293 cells assessed as change in intracellular calcium concentration by FLIPR. Format: functional, cell-based.
Assay [4] concerns the target T2, Neuronal acetylcholine receptor; alpha3/beta4 (Homo sapiens, UniProt P30926+P32297). The assay can be described thus: Agonist activity at human alpha-3-beta-4 ACHR expressed in HEK293 cells assessed as change in intracellular calcium concentration by FLIPR. Type of assay: functional, cell-based.
Assay [5] addresses T2, Neuronal acetylcholine receptor; alpha3/beta4. The assay can be described thus: Maximal agonist activity at human alpha-3-beta-4 ACHR expressed in HEK293 cells assessed as change in intracellular calcium concentration by FLIPR relative to nicotine. Type of assay: functional, cell-based.
The next assay relates to Rattus norvegicus. Briefly: Induction of behavioral side effects in rat formalin model upto 19 umol/kg, […]. Type of assay: functional, organism-based.

Each structure is given as a SMILES string. The source made the active and inactive calls. The calls are words filed in the database; no cut-off is given here.

Neuronal acetylcholine receptor; alpha4/beta2 (Rattus norvegicus, UniProt P09483+P12390), sequence (P09483 whole entry): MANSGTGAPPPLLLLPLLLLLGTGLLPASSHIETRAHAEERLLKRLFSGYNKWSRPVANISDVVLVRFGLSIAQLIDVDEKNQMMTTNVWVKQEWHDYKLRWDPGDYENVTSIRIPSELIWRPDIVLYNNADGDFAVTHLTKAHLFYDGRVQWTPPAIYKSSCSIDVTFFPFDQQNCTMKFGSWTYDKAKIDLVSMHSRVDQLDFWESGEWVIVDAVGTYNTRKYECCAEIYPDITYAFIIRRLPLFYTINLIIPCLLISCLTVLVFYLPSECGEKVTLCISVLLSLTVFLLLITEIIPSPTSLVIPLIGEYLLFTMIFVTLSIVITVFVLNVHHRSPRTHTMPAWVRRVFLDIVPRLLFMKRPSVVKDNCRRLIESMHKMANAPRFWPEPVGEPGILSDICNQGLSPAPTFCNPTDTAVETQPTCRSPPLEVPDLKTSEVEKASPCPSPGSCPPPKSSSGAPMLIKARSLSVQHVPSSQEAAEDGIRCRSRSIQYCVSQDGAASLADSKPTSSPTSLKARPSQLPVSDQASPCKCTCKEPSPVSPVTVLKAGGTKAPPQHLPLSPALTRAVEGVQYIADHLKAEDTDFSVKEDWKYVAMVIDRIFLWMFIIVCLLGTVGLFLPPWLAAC
Neuronal acetylcholine receptor; alpha4/beta2 (Rattus norvegicus, UniProt P09483+P12390), sequence (P12390 whole entry): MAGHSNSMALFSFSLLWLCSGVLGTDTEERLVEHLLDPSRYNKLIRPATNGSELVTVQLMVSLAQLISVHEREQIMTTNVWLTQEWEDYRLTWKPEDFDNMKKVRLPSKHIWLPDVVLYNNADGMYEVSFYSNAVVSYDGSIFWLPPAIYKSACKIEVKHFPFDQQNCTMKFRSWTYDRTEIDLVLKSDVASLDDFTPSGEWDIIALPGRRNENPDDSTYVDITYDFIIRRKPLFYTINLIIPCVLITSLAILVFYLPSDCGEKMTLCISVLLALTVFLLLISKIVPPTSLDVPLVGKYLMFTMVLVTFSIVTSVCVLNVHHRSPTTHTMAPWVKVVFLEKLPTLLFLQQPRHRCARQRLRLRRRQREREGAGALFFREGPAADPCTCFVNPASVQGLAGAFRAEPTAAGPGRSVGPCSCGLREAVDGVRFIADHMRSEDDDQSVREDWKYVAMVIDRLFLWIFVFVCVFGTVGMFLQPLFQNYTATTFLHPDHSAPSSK
T2 sequence (P30926 whole entry): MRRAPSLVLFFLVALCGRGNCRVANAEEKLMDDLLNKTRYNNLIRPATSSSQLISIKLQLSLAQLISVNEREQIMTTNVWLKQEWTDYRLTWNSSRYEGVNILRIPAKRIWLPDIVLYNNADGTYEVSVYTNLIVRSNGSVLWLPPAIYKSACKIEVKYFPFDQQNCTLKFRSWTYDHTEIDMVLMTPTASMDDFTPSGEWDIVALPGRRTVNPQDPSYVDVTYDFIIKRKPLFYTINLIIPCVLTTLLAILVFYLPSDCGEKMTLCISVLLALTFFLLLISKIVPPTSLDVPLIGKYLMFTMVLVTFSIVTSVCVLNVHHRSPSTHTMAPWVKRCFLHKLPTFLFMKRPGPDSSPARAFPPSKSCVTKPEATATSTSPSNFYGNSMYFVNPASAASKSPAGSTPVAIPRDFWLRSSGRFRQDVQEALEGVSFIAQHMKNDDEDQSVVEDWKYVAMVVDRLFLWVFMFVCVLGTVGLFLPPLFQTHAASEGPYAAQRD
T2 sequence (P32297 whole entry): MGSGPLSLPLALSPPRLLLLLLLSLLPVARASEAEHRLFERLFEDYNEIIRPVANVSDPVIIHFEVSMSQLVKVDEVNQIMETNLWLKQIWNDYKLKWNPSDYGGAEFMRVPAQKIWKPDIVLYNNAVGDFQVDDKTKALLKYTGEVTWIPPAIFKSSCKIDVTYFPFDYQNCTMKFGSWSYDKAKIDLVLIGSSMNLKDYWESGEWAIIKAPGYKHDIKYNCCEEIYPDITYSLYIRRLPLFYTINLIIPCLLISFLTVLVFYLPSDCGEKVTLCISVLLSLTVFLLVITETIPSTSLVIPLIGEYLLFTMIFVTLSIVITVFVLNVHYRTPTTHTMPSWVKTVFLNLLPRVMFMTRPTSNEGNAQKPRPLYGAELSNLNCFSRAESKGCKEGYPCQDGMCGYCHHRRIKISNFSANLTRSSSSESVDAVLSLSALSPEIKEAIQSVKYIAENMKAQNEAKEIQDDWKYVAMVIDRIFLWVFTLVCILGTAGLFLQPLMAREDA

`N#Cc1cncc(N2C[C@@H]3CCNC[C@@H]32)c1`: the Ki (in general, a dissociation constant, usually derived from enzyme kinetics or from competition with a known ligand) in assay [1] came out at 0.5 nM. In addition, the Activity in assay [2] came out at 64%; in assay [5] it was 91%. Further, the 50% effective concentration (EC50) – broadly, the concentration needed to bring the measured effect to its halfway point – in assay [3] was 2190 nM; in assay [4], 2560 nM.

In assay [1], `c1cncc(N2CC[C@@H]3CN[C@@H]3C2)c1` yielded a Ki of 0.059 nM. The results for the Activity in assay [2] and in assay [5] were 112% and 118%, respectively. Besides, the values for the EC50 in assay [3] and in assay [4] were 330 nM and 260 nM, respectively.

`Clc1ccc(N2CC[C@@H]3CN[C@@H]3C2)nn1` had a Ki in assay [1] of 2.7 nM. Moreover, the Activity amounted to 129% in assay [2] and 113% in assay [5]. The values for the EC50 in assay [3] and in assay [4] were 359 nM and 394 nM, respectively. In addition, the result with Rattus norvegicus was Active.

Turning to `N/C(=N/O)c1cncc(N2CC[C@@H]3CN[C@@H]3C2)c1`, the Activity in assay [2] was 194%; in assay [5], 99%.

For `N#Cc1cc(N2C[C@H]3CCNC[C@H]32)cnc1Br`, in assay [1], the Ki amounted to 0.3 nM. The Activity in assay [2] came out at 157%; in assay [5] it was 100%. For the same compound, the EC50 in assay [3] was 172 nM; in assay [4], 238 nM.

In the case of `COc1cc(N2C[C@H]3CCNC[C@H]32)cnc1Br`, the Ki in assay [1] is 0.085 nM. Besides, the figures for the Activity in assay [2] and in assay [5] were 120% and 98%, respectively. The EC50 in assay [3] was determined as 200 nM; in assay [4], 202 nM.

In assay [1], `Cc1cc(N2CC[C@@H]3CN[C@@H]3C2)cnc1Cl` yielded a Ki of 0.037 nM. For the same compound, the values for the Activity in assay [2] and in assay [5] were 90% and 103%, respectively. Moreover, the EC50 in assay [3] worked out at 47 nM; in assay [4], 71 nM. The result in the assay with Rattus norvegicus was inactive.

Regarding `N#Cc1cncc(N2C[C@H]3CCNC[C@H]32)c1`, in assay [1], the Ki amounted to 2.6 nM. Besides, the figures for the Activity in assay [2] and in assay [5] were 83% and 71%, respectively. The EC50 worked out at 1930 nM in assay [3] and 5560 nM in assay [4].

In assay [1], `COc1cncc(N2C[C@H]3CCNC[C@H]32)c1` yielded a Ki of 0.56 nM. Further, the Activity is 104% in assay [2] and 88% in assay [5]. Further, the figures for the EC50 in assay [3] and in assay [4] were 1100 nM and 4360 nM, respectively.

As to `N#Cc1cc(N2CC[C@H]3CN[C@H]3C2)cnc1Br`, in assay [1], the Ki came to 0.027 nM. Besides, the Activity in assay [2] was determined as 215%; in assay [5], 133%. The EC50 in assay [3] was 6.1 nM; in assay [4] it was 4.4 nM.

Regarding `Clc1cc(N2CC[C@H]3CN[C@H]3C2)cnc1Cl`, in assay [1], the affinity, expressed as Ki, was 0.025 nM. The Activity in assay [2] was found to be 221%; in assay [5], 132%. The values for the EC50 in assay [3] and in assay [4] were 12 nM and 9.9 nM, respectively.

In the case of `Cc1cncc(N2CC[C@@H]3CN[C@@H]3C2)c1`, the affinity in assay [1] corresponds to a Ki of 0.064 nM. For the same compound, the Activity stood at 54% in assay [2] and 87% in assay [5]. The EC50 in assay [3] worked out at 650 nM; in assay [4], 1400 nM. The outcome in the assay on Rattus norvegicus was inactive.

As for `Clc1cc(N2C[C@@H]3CCNC[C@@H]32)cnc1Cl`, the results for the Activity in assay [2] and in assay [5] were 60% and 69%, respectively. The EC50 is 271 nM in assay [3] and 4110 nM in assay [4]. Besides, the outcome in the assay with Rattus norvegicus was Active.

Take `COc1ccc(N2CC[C@H]3CN[C@H]3C2)cn1`: in assay [1], the Ki came to 0.98 nM. Further, the Activity in assay [2] worked out at 96%; in assay [5] it was 88%. Also, the EC50 turned out to be 2200 nM in assay [3] and 1100 nM in assay [4].

`c1ncc(N2CC[C@@H]3CN[C@@H]3C2)cn1` yielded a Ki in assay [1] of 0.2 nM. Besides, the Activity in assay [2] stood at 79%; in assay [5], 106%. The EC50 in assay [3] was found to be 4390 nM; in assay [4], 1020 nM.

In assay [1], `COc1ccc(N2CC[C@@H]3CN[C@@H]3C2)cn1` returned a Ki of 2.7 nM. Further, the Activity in assay [2] amounted to 54%; in assay [5], 93%. The EC50 in assay [3] was found to be 4980 nM; in assay [4] it was 2400 nM.

As for `COc1cncc(N2C[C@@H]3CCNC[C@@H]32)c1`, the Ki in assay [1] worked out at 4.4 nM. Further, the Activity in assay [2] was determined as 44%; in assay [5], 47%. Moreover, the EC50 in assay [3] stood at 7690 nM; in assay [4], 63500 nM.

For `O=[N+]([O-])c1ccc(N2CC[C@@H]3CN[C@@H]3C2)cn1`, the Ki in assay [1] is 2.4 nM. The Activity was 114% in assay [2] and 98% in assay [5]. The EC50 turned out to be 110 nM in assay [3] and 830 nM in assay [4]. For the same compound, in the assay with Rattus norvegicus, the result was Active.

As for `NC(=O)c1cc(N2C[C@@H]3CCNC[C@@H]32)cnc1Br`, the Ki in assay [1] amounted to 2.8 nM. Also, the Activity in assay [2] amounted to 75%; in assay [5], 73%. Further, the EC50 in assay [3] stood at 1490 nM; in assay [4], 23300 nM.

In assay [1], `Clc1ccc(N2CC[C@@H]3CN[C@@H]3C2)cn1` registered a Ki of 0.032 nM. In addition, the Activity in assay [2] was 130%; in assay [5] it was 125%. Also, the EC50 in assay [3] was 24 nM; in assay [4], 25 nM.

Turning to `Clc1ccc(N2C[C@H]3CCNC[C@H]32)cn1`, in assay [1], the affinity, expressed as Ki, was 0.8 nM. Moreover, the Activity in assay [2] worked out at 102%; in assay [5], 93%. The results for the EC50 in assay [3] and in assay [4] were 216 nM and 1520 nM, respectively.

With `Clc1cc(N2C[C@H]3CCNC[C@H]32)cnc1Cl`, in assay [1], the Ki stood at 0.3 nM. Further, the values for the Activity in assay [2] and in assay [5] were 127% and 103%, respectively. The EC50 is 176 nM in assay [3] and 339 nM in assay [4].

Consider `Cc1cc(N2CC[C@H]3CN[C@H]3C2)cnc1Cl`, for which, in assay [1], the affinity corresponds to a Ki of 0.031 nM. The Activity came to 207% in assay [2] and 123% in assay [5]. For the same compound, the EC50 in assay [3] and in assay [4] was 7.2 nM in each case.

Compound `CCOc1cncc(N2CC[C@@H]3CN[C@@H]3C2)c1` had a Ki in assay [1] of 0.16 nM. The Activity in assay [2] was determined as 18%; in assay [5], 86%. Also, the results for the EC50 in assay [3] and in assay [4] were 1350 nM and 2800 nM, respectively.

As to `Brc1cncc(N2CC[C@@H]3CN[C@@H]3C2)c1` (single isomer, unassigned), the affinity in assay [1], expressed as Ki, was 0.053 nM. Further, the figures for the Activity in assay [2] and in assay [5] were 58% and 91%, respectively. For the same compound, the values for the EC50 in assay [3] and in assay [4] were 1000 nM and 950 nM, respectively.

Compound `COc1cc(N2CC[C@H]3CN[C@H]3C2)cnc1Br` had a Ki in assay [1] of 0.027 nM. Further, the figures for the Activity in assay [2] and in assay [5] were 217% and 120%, respectively. For the same compound, the values for the EC50 in assay [3] and in assay [4] were 21 nM and 8 nM, respectively.

As for `Brc1cncc(N2CC[C@H]3CN[C@H]3C2)c1`, in assay [1], the affinity, expressed as Ki, was 0.024 nM. Further, the Activity turned out to be 148% in assay [2] and 122% in assay [5]. Further, the EC50 amounted to 150 nM in assay [3] and 76 nM in assay [4].

Take `c1cncc(N2C[C@H]3CCNC[C@H]32)c1`: the Activity in assay [2] came out at 84%; in assay [5], 97%. Moreover, the EC50 was found to be 1400 nM in assay [3] and 1540 nM in assay [4].

With `O=[N+]([O-])c1ccc(N2CC[C@H]3CN[C@H]3C2)cn1`, the affinity in assay [1], expressed as Ki, was 1.5 nM. Moreover, the Activity in assay [2] is 196%; in assay [5], 119%. Moreover, the EC50 in assay [3] amounted to 100 nM; in assay [4], 390 nM.

In assay [1], `COc1cc(N2CC[C@@H]3CN[C@@H]3C2)cnc1Br` gave an inhibitory constant (Ki) of 0.069 nM. Besides, the Activity in assay [2] turned out to be 40%; in assay [5] it was 108%. Further, the figures for the EC50 in assay [3] and in assay [4] were 360 nM and 160 nM, respectively.

Turning to `c1ncc(N2CC[C@H]3CN[C@H]3C2)cn1`, in assay [1], the Ki is 0.04 nM. Besides, the Activity in assay [2] stood at 181%; in assay [5] it was 121%. For the same compound, the EC50 in assay [3] stood at 350 nM; in assay [4], 108 nM.

On to `NC(=O)c1cc(N2C[C@H]3CCNC[C@H]32)cnc1Br`, for which the values for the Activity in assay [2] and in assay [5] were 133% and 90%, respectively. The 50% effective concentration (EC50) came out at 340 nM in assay [3] and 7460 nM in assay [4].

Regarding `c1ncc(N2C[C@@H]3CCNC[C@@H]32)cn1` (single isomer, unassigned), the Ki in assay [1] came out at 1.6 nM. Besides, the values for the Activity in assay [2] and in assay [5] were 104% and 93%, respectively. For the same compound, the EC50 in assay [3] is 8420 nM; in assay [4], 9940 nM.

Consider `COc1cc(N2C[C@@H]3CCNC[C@@H]32)cnc1Br`, for which the Ki in assay [1] turned out to be 1.4 nM. Also, the Activity turned out to be 65% in assay [2] and 84% in assay [5]. For the same compound, the EC50 was found to be 1690 nM in assay [3] and 2980 nM in assay [4].

Regarding `CCOc1cncc(N2CC[C@H]3CN[C@H]3C2)c1`, in assay [1], the Ki was determined as 0.052 nM. Moreover, the Activity in assay [2] stood at 116%; in assay [5] it was 103%. Further, the EC50 in assay [3] amounted to 620 nM; in assay [4] it was 124 nM.

Consider `c1cncc(N2C[C@@H]3CCNC[C@@H]32)c1`, for which the Activity in assay [2] worked out at 105%; in assay [5], 98%. The values for the EC50 in assay [3] and in assay [4] were 410 nM and 1700 nM, respectively. Further, in the assay with Rattus norvegicus, the outcome was Active.

The compound `Clc1ccc(N2CC[C@H]3CN[C@H]3C2)nn1` showed a Ki in assay [1] of 0.15 nM. Further, the results for the Activity in assay [2] and in assay [5] were 222% and 128%, respectively. Also, the EC50 in assay [3] was found to be 78.3 nM; in assay [4], 64.8 nM.

Regarding `c1cncc(N2CC[C@H]3CN[C@H]3C2)c1`, the Ki in assay [1] came out at 0.035 nM. In addition, the figures for the Activity in assay [2] and in assay [5] were 171% and 121%, respectively. The EC50 was 71 nM in assay [3] and 48 nM in assay [4].

For the origin of these results see ChEMBL document CHEMBL1138225, “Synthesis and structure-activity relationships of 3,8-diazabicyclo[4.2.0]octane ligands, potent nicotinic acetylcholine receptor agonists” (J Med Chem, 2006).
